Measured values from patent publication US6376497B1, “Antifungal azole derivatives having a fluorinated vinyl group and process for preparing same” (Korea Research Institute of Chemical Technology, priority 1999, dated 2002).
Converted amounts (≈) assume the structure as drawn.

Assays:
Experiment in all cases: In vitro antifungal activity, microbroth dilution MIC
Assay type in all cases: cell-based
[1] = test system: Aspergillus niger A. 16404; settings: for Minimal inhibitory concentration(MIC), A. niger A. 16404: RPMI-1640, 35° C., no growth observed; for Minimal inhibitory concentration (MIC): A. niger A. 16404, RPMI-1640, 35° C., 4 to 48 hours
Method in brief: (§1)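 Broth microdilution adapted from NCCLS M27, in RPMI-1640 with 0.165 M MOPS, pH 7.0. Yeast or mould inoculum at 2×10^3 CFU/ml was mixed 1:1 with DMSO-derived compound solutions (200 to 0.10 μg/ml before mixing) and incubated at 35 °C for 4 to 48 h. MIC was the concentration showing no growth.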

[2] = test system: Cryptococcus neoformans B. 42419; settings: 4 to 48 hours; for Minimal inhibitory concentration(MIC), Cry. neoformans B. 42419: RPMI-1640, 35° C., no growth observed; for Minimal inhibitory concentration (MIC): Cry. neoformans B. 42419, RPMI-1640, 35° C.
Method in brief: as §1

[3] = test system: Aspergillus furnigatus B. 19119; settings: for Minimal inhibitory concentration(MIC), A furnigatus B. 19119: RPMI-1640, 35° C., no growth observed; for Minimal inhibitory concentration (MIC): A furnigatus B. 19119, RPMI-1640, 35° C., 4 to 48 hours
Method in brief: as §1

[4] = test system: Candida parapsitosis A. 7330; settings: 4 to 48 hours; for Minimal inhibitory concentration(MIC), C. parapsitosis A. 7330: RPMI-1640, 35° C., no growth observed; for Minimal inhibitory concentration (MIC): C. parapsitosis A. 7330, RPMI-1640, 35° C.
Method in brief: as §1

[5] = test system: Candida albicans A. 10231; settings: 4 to 48 hours; for Minimal inhibitory concentration(MIC), C. albicans A. 10231: RPMI-1640, 35° C., no growth observed; for Minimal inhibitory concentration (MIC): C. albicans A. 10231, RPMI-1640, 35° C.
Method in brief: as §1

[6] = test system: Torulopsis glabrata B. 16205; settings: 4 to 48 hours; for Minimal inhibitory concentration(MIC), T. glabrata B. 16205: RPMI-1640, 35° C., no growth observed; for Minimal inhibitory concentration (MIC): T. glabrata B. 16205, RPMI-1640, 35° C.
Method in brief: as §1

[7] = test system: Cryptococcus neoformans A. 34144; settings: for Minimal inhibitory concentration(MIC), Cry. neoformans A. 34144: RPMI-1640, 35° C., no growth observed; for Minimal inhibitory concentration (MIC): Cry. neoformans A. 34144, RPMI-1640, 35° C., 4 to 48 hours
Method in brief: as §1

[8] = test system: Candida albicans IFO. 1385; settings: 4 to 48 hours; for Minimal inhibitory concentration(MIC), C. albicans IFO. 1385: RPMI-1640, 35° C., no growth observed; for Minimal inhibitory concentration (MIC): C. albicans IFO. 1385, RPMI-1640, 35° C.
Method in brief: as §1

[9] = test system: Candida tropicalis A. 13803; settings: 4 to 48 hours; for Minimal inhibitory concentration(MIC), C. tropicalis A. 13803: RPMI-1640, 35° C., no growth observed; for Minimal inhibitory concentration (MIC): C. tropicalis A. 13803, RPMI-1640, 35° C.
Method in brief: as §1

Candida krusei K. 11655 = settings: 4 to 48 hours; for Minimal inhibitory concentration(MIC), C. krusei K. 11655: RPMI-1640, 35° C., no growth observed; for Minimal inhibitory concentration (MIC): C. krusei K. 11655, RPMI-1640, 35° C.
Method in brief: as §1

[10] = test system: Candida pseudotropicalis K. 11658; settings: 4 to 48 hours; for Minimal inhibitory concentration(MIC), C. pseudotropicalis K. 11658: RPMI-1640, 35° C., no growth observed; for Minimal inhibitory concentration (MIC): C. pseudotropicalis K. 11658, RPMI-1640, 35° C.
Method in brief: as §1

[11] = test system: Trichophyton mentagrophytes A. 9129; settings: for Minimal inhibitory concentration(MIC), T. mentagrophytes A. 9129: RPMI-1640, 35° C., no growth observed; for Minimal inhibitory concentration (MIC): T. mentagrophytes A. 9129, RPMI-1640, 35° C., 4 to 48 hours
Method in brief: as §1

[12] = test system: Cryptococcus neoformans IFM. 40092; settings: for Minimal inhibitory concentration(MIC), Cry. neoformans IFM. 40092: RPMI-1640, 35° C., no growth observed; for Minimal inhibitory concentration (MIC): Cry. neoformans IFM. 40092, RPMI-1640, 35° C., 4 to 48 hours
Method in brief: as §1

Candida albicans C1-2 = settings: 4 to 48 hours; for Minimal inhibitory concentration(MIC), C. albicans C1-2: RPMI-1640, 35° C., no growth observed; for Minimal inhibitory concentration (MIC): C. albicans C1-2, RPMI-1640, 35° C.
Method in brief: as §1

[13] = test system: Trichophyton mentagrophytes B. 32663; settings: for Minimal inhibitory concentration(MIC), T. mentagrophytes B. 32663: RPMI-1640, 35° C., no growth observed; for Minimal inhibitory concentration (MIC): T. mentagrophytes B. 32663, RPMI-1640, 35° C., 4 to 48 hours
Method in brief: as §1

Minimal inhibitory concentration(MIC), A. niger A. 16404 [1] [µg/mL] | Minimal inhibitory concentration(MIC), Cry. neoformans B. 42419 [2] [µg/mL] | Minimal inhibitory concentration(MIC), A furnigatus B. 19119 [3] [µg/mL] | Minimal inhibitory concentration(MIC), C. parapsitosis A. 7330 [4] [µg/mL] | Minimal inhibitory concentration(MIC), C. albicans A. 10231 [5] [µg/mL] | Minimal inhibitory concentration(MIC), T. glabrata B. 16205 [6] [µg/mL] | Minimal inhibitory concentration(MIC), Cry. neoformans A. 34144 [7] [µg/mL] | Minimal inhibitory concentration(MIC), C. albicans IFO. 1385 [8] [µg/mL] | Minimal inhibitory concentration(MIC), C. tropicalis A. 13803 [9] [µg/mL] | Minimal inhibitory concentration(MIC), C. krusei K. 11655 (Candida krusei K. 11655) [µg/mL] | Minimal inhibitory concentration(MIC), C. pseudotropicalis K. 11658 [10] [µg/mL] | Minimal inhibitory concentration(MIC), T. mentagrophytes A. 9129 [11] [µg/mL] | Minimal inhibitory concentration(MIC), Cry. neoformans IFM. 40092 [12] [µg/mL] | Minimal inhibitory concentration(MIC), C. albicans C1-2 (Candida albicans C1-2) [µg/mL] | Minimal inhibitory concentration(MIC), T. mentagrophytes B. 32663 [13] [µg/mL] | Minimal inhibitory concentration (MIC) [1] [µg/mL] | Minimal inhibitory concentration (MIC) [2] [µg/mL] | Minimal inhibitory concentration (MIC) [3] [µg/mL] | Minimal inhibitory concentration (MIC) [4] [µg/mL] | Minimal inhibitory concentration (MIC) [5] [µg/mL] | SMILES | also measured
100 | 0.78 | 100 | 1.56 | >100 | 100 | 1.56 | 0.78 | >100 | 0.78 | 0.39 | 12.5 | 0.78 | >100 | 1.56 | – | – | – | – | – | FC(=C(c1ccc(Oc2ccccc2)cc1)C(F)(F)F)N1CCN(c2ccc(OCC3COC(Cn4ccnc4)(c4ccc(F)cc4F)O3)cc2)CC1 (mixture of isomers) [Ex. 146] | –
>100 | 0.39 | 100 | 3.13 | >100 | >100 | 3.13 | 0.39 | >100 | 6.25 | 1.56 | 12.5 | 0.39 | >100 | 1.56 | – | – | – | – | – | COc1ccc(C(=C(F)N2CCN(c3ccc(OCC4COC(Cn5ccnc5)(c5ccc(F)cc5F)O4)cc3)CC2)C(F)(F)F)cc1 (mixture of isomers) [Ex. 144] | –
– | – | – | – | – | – | – | – | – | – | – | – | – | – | – | 6.25 (≈ 13.1 µM) | 3.13 (≈ 6.56 µM) | 6.25 (≈ 13.1 µM) | 12.5 (≈ 26.2 µM) | 12.5 (≈ 26.2 µM) | Cc1ccc(C=C(F)OCC2COC(Cn3ccnc3)(c3ccc(Cl)cc3Cl)O2)cc1C (stereo not drawn) [Ex. 5] | Minimal inhibitory concentration (MIC) [6]: 6.25 µg/mL (≈ 13.1 µM); Minimal inhibitory concentration (MIC) [7]: 3.13 µg/mL (≈ 6.56 µM); Minimal inhibitory concentration (MIC) [8]: 0.78 µg/mL (≈ 1.63 µM); Minimal inhibitory concentration (MIC) [9]: 12.5 µg/mL (≈ 26.2 µM); Minimal inhibitory concentration (MIC) (Candida krusei K. 11655): 12.5 µg/mL (≈ 26.2 µM); Minimal inhibitory concentration (MIC) [10]: 12.5 µg/mL (≈ 26.2 µM); Minimal inhibitory concentration (MIC) [11]: 3.13 µg/mL (≈ 6.56 µM); Minimal inhibitory concentration (MIC) [12]: 1.56 µg/mL (≈ 3.27 µM); Minimal inhibitory concentration (MIC) (Candida albicans C1-2): 12.5 µg/mL (≈ 26.2 µM); Minimal inhibitory concentration (MIC) [13]: 3.13 µg/mL (≈ 6.56 µM)
– | – | – | – | – | – | – | – | – | – | – | – | – | – | – | 100 (≈ 164 µM) | 1.56 (≈ 2.56 µM) | 6.25 (≈ 10.3 µM) | >100 | >100 | FC(OCC1COC(Cn2ccnc2)(c2ccc(Cl)cc2Cl)O1)=C(c1ccc(Oc2ccccc2)cc1)C(F)(F)F (stereo not drawn) [Ex. 29] | Minimal inhibitory concentration (MIC) [6]: 12.5 µg/mL (≈ 20.5 µM); Minimal inhibitory concentration (MIC) [7]: 1.56 µg/mL (≈ 2.56 µM); Minimal inhibitory concentration (MIC) [8]: 1.56 µg/mL (≈ 2.56 µM); Minimal inhibitory concentration (MIC) [9]: >100 µg/mL; Minimal inhibitory concentration (MIC) (Candida krusei K. 11655): >100 µg/mL; Minimal inhibitory concentration (MIC) [10]: >100 µg/mL; Minimal inhibitory concentration (MIC) [11]: 6.25 µg/mL (≈ 10.3 µM); Minimal inhibitory concentration (MIC) [12]: 0.20 µg/mL (≈ 0.328 µM); Minimal inhibitory concentration (MIC) (Candida albicans C1-2): >100 µg/mL; Minimal inhibitory concentration (MIC) [13]: 3.13 µg/mL (≈ 5.14 µM)
